Experimental data published in US20260185056A1, “TRIPLE TISSUE CULTURE FUSION” (IMBA - INSTITUT FÜR MOLEKULARE BIOTECHNOLOGIE GMBH, priority 2022, published 2026).
“Also recorded” adds a separate entry of the source.

Tests used:
[1] = system: ventral midbrain organoids; assay: SAG dose curve for floor plate induction in ventral midbrain organoids (qPCR FOXA2); format: cell-based, human; details: day 4-11, with dual SMAD inhibition and Wnt activation; by day 20
Description: FIG. 2A-D: qPCR analysis of markers of ventral midbrain of the dose curving experiment to generate ventral midbrain organoids. Two separate dose curving experiments were performed, where first the correct dosage of sonic hedgehog activation was tested (FIG. 2A, floor plate marker FOXA2). Secondly, we performed qPCR to test for appropriate concentrations of posteriorization using Wnt activation. Dopaminergic neurons are born in the very ventral floor plate of the posterior midbrain, next to the midbrain-hindbrain boundary, thus the Forebrain and Midbrain marker OTX2 should still be expressed, whereas the hindbrain is OTX2 negative. We found a concentration of 0.8-1 μM sufficient to introduce midbrain (FIG. 2B), while the floor plate marker FOXA2 was still expressed (FIG. 2C). qPCR for the dopaminergic marker TH (Tyrosine hydroxylase, the rate-limiting enzyme for dopamine synthesis) confirmed this concentration of Wnt activation, with a sharp drop of TH expression starting at 1.2 μM CHIR (FIG. 2D).
All qPCR data are relative to the expression of TBP.
For ventral midbrain organoid preparation, cells were grown for 2-3 days after splitting in MG coated 6 well plates and dissociated using 600 μl Accutase. […] Cells were resuspended in 1 ml stem cell media +1:100 RI and counted. […]
Quantification was performed in excel by calculating ΔCt relative to TBP. […]

striatal organoids = assay: SAG dose-response curve in presence of IWP2 for LGE patterning of striatal organoids; format: cell-based, human
Description: Panel C, D: Quantifications of GSX2^+ rosettes and PAX6^− rosettes, indicating LGE identity.
Panel E-F: Immunolabeling of CTIP2, an important early striatal marker, in two conditions with promising numbers of GSX2^+ rosettes, but low PAX6 expression.
For striatal organoid preparation, cells were grown for 2-3 days after splitting in MG coated 6 well plates and dissociated using 600 μl Accutase. 9000 cells were then transferred into 150 μl neural induction media containing 10 nM SAG and 2.5 μM IWP2 (SigmaAldrich, Cat. #10536) as well as 1:100 ROCK inhibitor. Media was exchanged on day 2 by replacing 100 μl media with 150 μl fresh NI media containing 10 nM SAG, 2.5 μM IWP2 and 1:100 ROCK inhibitor.
Striatal neurons are born majorly from the lateral ganglionic eminence (LGE), from where they migrate and form the developing striatum (Fjodorova, Noakes and Li, Neurogenesis, 2(1), 2015, Ornorati et al., Nat. Neurosci. 17, 1804-15, 2014). To pattern into LGE, we performed a dose curve experiment in a Wnt inhibitory context (IWP-2, which anteriorized and inhibits dorsal fate) similar to previous 2D differentiation approaches (Wu et al., Stem Cell Reports 11, 635-650, 2018). In brief, we activated sonic hedgehog signaling with the small molecule SAG at concentrations between 10 nM and 100 nM (FIG. 4B). We performed a SAG dose-response curve in the presence of the Wnt inhibitor IWP2 in an otherwise growth-factor free neural induction media.

[2] = lowest concentration of SAG (10 nM), with IWP2, day 28 organoids

With `CN[C@H]1CC[C@H](N(Cc2cccc(-c3ccncc3)c2)C(=O)c2sc3ccccc3c2Cl)CC1` [SAG, 3-Chloro-N-[trans-4-(methylamino)cyclo-hexyl]-N-[[3-(4-pyridinyl)phenyl]methyl]benzo[b]thiophene-2-carboxamide] the “concentration sufficient to introduce maximal FOXA2 expression levels” value [1] was 300 nM, the CTIP2 expression (striatal organoids; 25 nM SAG treated organoids compared with SAG10 treated organoids) was “much lower; also recorded: significantly lower” and the “rosettes expressing the LGE marker GSX2” value (striatal organoids; [2]) was “high level”. The “rosettes expressing the more dorsal marker PAX6” value (striatal organoids; [2]) was “low number”.
